Results reported in the kinase profiling compilation of Christmann-Franck et al. (2016).

Key:
Assay in all cases: radiometric filter-binding kinase assay, Kinase HotSpot
Settings in all cases: compound 0.5 µM; ATP 10 µM
AURKC (human) = AURKC (human) (UniProt Q9UQB9)
LRRK2 (human) = LRRK2 (human) (UniProt Q5S007)
CDK2 CCNE1 (human) = CDK2 CCNE1 (human) (UniProt P24941+P24864)
ACVR1 (human) = ACVR1 (human) (UniProt Q04771)
MYLK2 (human) = MYLK2 (human) (UniProt Q9H1R3)
TLK2 (human) = TLK2 (human) (UniProt Q86UE8)
Chain of TLK2 (human) (Q86UE8 whole entry, looked up): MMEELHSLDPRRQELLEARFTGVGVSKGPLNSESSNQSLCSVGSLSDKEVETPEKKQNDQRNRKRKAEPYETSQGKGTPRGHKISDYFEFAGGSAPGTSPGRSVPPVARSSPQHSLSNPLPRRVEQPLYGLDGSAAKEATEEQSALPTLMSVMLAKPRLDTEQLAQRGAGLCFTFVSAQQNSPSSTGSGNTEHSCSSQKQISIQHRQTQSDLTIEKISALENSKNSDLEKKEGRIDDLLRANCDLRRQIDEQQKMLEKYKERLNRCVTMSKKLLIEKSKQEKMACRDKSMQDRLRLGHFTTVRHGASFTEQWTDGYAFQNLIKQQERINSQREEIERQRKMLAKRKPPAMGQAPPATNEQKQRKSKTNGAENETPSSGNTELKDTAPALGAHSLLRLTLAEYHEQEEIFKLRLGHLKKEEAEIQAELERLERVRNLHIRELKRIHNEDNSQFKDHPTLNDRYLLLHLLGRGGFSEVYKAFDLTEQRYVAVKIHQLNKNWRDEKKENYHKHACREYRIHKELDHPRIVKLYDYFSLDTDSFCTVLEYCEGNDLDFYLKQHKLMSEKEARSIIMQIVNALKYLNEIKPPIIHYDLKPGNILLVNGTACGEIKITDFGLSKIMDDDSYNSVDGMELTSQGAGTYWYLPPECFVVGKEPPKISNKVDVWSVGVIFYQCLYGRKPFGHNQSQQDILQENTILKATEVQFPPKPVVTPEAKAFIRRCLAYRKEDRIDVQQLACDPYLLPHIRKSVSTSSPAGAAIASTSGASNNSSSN

CDC42BPA (human) = CDC42BPA (human) (UniProt Q5VT25)
STK39 (human) = STK39 (human) (UniProt Q9UEW8)
HIPK3 (human) = HIPK3 (human) (UniProt Q9H422)
MKNK2 (human) = MKNK2 (human) (UniProt Q9HBH9)
PKN1 (human) = PKN1 (human) (UniProt Q16512)
CHEK2 (human) = CHEK2 (human) (UniProt O96017)
Chain of CHEK2 (human) (O96017 whole entry, looked up): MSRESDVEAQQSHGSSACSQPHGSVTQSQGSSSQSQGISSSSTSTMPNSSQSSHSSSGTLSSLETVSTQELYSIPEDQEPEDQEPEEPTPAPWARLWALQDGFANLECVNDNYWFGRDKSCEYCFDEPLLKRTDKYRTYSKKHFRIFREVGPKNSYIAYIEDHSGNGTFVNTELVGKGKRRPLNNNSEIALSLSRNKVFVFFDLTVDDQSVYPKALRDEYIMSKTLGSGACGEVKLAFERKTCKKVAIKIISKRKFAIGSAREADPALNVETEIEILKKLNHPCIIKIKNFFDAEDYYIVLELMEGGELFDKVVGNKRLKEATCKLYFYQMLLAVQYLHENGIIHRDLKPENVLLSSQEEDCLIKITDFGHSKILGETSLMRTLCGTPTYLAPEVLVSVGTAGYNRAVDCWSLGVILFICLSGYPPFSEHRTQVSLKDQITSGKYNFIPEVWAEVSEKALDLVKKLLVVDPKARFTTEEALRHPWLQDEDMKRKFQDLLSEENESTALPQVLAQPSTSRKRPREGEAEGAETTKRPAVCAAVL

PDGFRB (human) = PDGFRB (human) (UniProt P09619)
PAK3 (human) = PAK3 (human) (UniProt O75914)
MAPK3 (human) = MAPK3 (human) (UniProt P27361)
DAPK2 (human) = DAPK2 (human) (UniProt Q9UIK4)
CSNK1G2 (human) = CSNK1G2 (human) (UniProt P78368)
ROCK2 (human) = ROCK2 (human) (UniProt O75116)
RPS6KA6 KD1 KD2 (human) = RPS6KA6 KD1 KD2 (human) (UniProt Q9UK32)
FGFR4 (human) = FGFR4 (human) (UniProt P22455)
TNK2 (human) = TNK2 (human) (UniProt Q07912)
ULK1 (human) = ULK1 (human) (UniProt O75385)
CAMK2G (human) = CAMK2G (human) (UniProt Q13555)
Chain of CAMK2G (human) (Q13555 whole entry, looked up): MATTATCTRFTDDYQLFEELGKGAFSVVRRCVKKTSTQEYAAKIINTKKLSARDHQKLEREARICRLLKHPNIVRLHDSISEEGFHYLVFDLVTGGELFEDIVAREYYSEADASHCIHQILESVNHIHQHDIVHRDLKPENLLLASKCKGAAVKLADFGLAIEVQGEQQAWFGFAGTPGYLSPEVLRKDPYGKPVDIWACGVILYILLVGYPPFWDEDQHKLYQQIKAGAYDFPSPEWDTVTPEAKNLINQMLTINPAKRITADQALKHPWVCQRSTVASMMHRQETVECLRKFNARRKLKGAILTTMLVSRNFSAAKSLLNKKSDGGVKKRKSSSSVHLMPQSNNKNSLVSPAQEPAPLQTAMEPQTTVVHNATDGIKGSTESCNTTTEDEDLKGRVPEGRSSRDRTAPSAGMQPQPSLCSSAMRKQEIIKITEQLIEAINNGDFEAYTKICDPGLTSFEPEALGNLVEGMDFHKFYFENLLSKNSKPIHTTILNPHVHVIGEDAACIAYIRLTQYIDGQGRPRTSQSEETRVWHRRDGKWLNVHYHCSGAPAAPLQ

EPHA3 (human) = EPHA3 (human) (UniProt P29320)
Chain of EPHA3 (human) (P29320 whole entry, looked up): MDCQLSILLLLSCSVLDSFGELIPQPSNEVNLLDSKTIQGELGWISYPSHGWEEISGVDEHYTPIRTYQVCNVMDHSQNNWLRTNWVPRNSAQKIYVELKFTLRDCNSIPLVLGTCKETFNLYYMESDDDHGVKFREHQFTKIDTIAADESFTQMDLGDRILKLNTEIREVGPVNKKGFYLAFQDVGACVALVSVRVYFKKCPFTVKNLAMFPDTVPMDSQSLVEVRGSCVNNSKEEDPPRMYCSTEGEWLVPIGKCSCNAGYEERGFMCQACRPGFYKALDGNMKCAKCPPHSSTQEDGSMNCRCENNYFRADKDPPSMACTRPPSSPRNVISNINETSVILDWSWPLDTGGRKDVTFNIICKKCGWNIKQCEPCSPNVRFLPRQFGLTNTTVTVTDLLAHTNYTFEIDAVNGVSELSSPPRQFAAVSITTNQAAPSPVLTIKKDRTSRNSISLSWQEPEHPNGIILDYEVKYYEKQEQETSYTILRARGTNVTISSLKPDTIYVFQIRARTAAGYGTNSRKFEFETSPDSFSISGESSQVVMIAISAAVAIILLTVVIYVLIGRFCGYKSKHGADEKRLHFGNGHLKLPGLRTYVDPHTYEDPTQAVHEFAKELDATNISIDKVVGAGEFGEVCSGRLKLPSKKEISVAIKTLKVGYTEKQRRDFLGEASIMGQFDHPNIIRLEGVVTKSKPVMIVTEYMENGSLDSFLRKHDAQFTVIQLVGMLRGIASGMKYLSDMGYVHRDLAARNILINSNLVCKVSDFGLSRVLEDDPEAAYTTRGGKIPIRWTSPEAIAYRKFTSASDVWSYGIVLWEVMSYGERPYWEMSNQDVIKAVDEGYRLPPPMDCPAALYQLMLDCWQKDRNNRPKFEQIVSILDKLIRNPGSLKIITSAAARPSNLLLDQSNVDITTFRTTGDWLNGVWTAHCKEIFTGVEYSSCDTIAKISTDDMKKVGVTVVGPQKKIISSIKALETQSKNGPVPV

FES (human) = FES (human) (UniProt P07332)
Chain of FES (human) (P07332 whole entry, looked up): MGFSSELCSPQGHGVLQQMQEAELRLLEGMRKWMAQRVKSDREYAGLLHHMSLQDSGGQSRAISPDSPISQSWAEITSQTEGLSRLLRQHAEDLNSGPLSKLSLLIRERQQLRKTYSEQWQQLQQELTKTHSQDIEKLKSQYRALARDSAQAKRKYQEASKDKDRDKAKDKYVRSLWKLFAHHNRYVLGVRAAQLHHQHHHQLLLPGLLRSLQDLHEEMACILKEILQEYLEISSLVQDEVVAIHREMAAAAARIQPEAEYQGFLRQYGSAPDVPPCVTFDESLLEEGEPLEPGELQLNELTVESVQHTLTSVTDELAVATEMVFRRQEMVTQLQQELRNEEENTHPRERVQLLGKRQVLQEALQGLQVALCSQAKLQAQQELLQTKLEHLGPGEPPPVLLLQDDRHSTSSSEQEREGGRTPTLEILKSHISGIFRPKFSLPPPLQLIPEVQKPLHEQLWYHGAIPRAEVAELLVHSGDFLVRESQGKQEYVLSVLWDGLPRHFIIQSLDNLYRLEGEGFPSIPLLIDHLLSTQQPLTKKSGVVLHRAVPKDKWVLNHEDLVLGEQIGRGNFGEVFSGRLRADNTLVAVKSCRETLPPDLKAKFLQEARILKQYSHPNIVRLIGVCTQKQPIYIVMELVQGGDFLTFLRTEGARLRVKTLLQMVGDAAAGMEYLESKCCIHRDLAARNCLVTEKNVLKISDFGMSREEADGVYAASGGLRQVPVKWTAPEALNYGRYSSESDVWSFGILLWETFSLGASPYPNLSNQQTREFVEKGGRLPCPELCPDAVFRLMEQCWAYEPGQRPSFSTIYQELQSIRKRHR

TGFBR1 (human) = TGFBR1 (human) (UniProt P36897)
Chain of TGFBR1 (human) (P36897 whole entry, looked up): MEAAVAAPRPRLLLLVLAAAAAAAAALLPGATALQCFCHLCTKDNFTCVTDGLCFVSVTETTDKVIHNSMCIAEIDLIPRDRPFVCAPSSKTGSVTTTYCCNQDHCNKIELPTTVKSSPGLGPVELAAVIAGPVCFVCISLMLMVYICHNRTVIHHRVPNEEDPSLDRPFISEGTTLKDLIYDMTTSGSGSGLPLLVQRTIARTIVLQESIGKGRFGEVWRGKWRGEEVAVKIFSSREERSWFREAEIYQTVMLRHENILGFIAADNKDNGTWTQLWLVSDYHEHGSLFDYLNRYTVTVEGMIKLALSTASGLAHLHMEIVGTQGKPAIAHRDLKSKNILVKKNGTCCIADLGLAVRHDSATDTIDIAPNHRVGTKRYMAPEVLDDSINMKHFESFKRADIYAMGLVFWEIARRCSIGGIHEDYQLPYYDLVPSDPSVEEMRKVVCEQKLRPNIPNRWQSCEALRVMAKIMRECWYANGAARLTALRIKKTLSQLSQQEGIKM

HIPK2 (human) = HIPK2 (human) (UniProt Q9H2X6)
BRAF (human) = BRAF (human) (UniProt P15056)
CLK4 (human) = CLK4 (human) (UniProt Q9HAZ1)
HIPK1 (human) = HIPK1 (human) (UniProt Q86Z02)
NEK6 (human) = NEK6 (human) (UniProt Q9HC98)
Chain of NEK6 (human) (Q9HC98 whole entry, looked up): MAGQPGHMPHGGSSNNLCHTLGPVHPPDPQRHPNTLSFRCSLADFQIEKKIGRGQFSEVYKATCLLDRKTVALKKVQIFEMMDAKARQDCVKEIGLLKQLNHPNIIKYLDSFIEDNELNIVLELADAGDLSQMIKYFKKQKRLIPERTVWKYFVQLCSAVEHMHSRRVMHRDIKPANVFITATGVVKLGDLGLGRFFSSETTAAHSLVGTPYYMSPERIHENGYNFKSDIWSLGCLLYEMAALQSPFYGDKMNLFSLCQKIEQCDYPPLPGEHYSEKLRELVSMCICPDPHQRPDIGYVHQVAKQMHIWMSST

MAP3K5 (human) = MAP3K5 (human) (UniProt Q99683)
MELK (human) = MELK (human) (UniProt Q14680)
INSRR (human) = INSRR (human) (UniProt P14616)
TEK (human) = TEK (human) (UniProt Q02763)
CDK2 CCNA2 (human) = CDK2 CCNA2 (human) (UniProt P24941+P20248)
KDR (human) = KDR (human) (UniProt P35968)
PRKACG (human) = PRKACG (human) (UniProt P22612)
Chain of PRKACG (human) (P22612 whole entry, looked up): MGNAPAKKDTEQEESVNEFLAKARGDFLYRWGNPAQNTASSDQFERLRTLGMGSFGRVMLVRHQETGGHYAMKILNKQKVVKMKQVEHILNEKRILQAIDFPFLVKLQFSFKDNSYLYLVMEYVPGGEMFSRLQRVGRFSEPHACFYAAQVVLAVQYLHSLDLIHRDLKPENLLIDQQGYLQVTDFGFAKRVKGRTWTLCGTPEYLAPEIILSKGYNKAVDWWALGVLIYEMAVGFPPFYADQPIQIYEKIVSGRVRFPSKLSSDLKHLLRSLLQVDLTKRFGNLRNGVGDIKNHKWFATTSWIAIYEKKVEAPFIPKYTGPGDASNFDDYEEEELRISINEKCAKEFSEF

MARK4 (human) = MARK4 (human) (UniProt Q96L34)
INSR (human) = INSR (human) (UniProt P06213)
EPHA6 (human) = EPHA6 (human) (UniProt Q9UF33)

`CCN(CC)CCNC(=O)c1c(C)[nH]c(/C=C2\C(=O)Nc3ccc(Cl)cc32)c1C` was tested, and the residual activity (AURKC (human)) was 74.7%, the residual activity (LRRK2 (human)) was 1.44% and the residual activity (CDK2 CCNE1 (human)) was 90%. It also gave a residual activity (ACVR1 (human)) of 108%, a residual activity (MYLK2 (human)) of 10% and a residual activity (TLK2 (human)) of 79.6%. For the same molecule, the residual activity (CDC42BPA (human)) was 60%, the residual activity (STK39 (human)) was 81.9% and the residual activity (HIPK3 (human)) was 50.8%. The residual activity (MKNK2 (human)) was 88.8%, the residual activity (PKN1 (human)) was 36.5% and the residual activity (CHEK2 (human)) was 6.42%. The residual activity (PDGFRB (human)) was 9.28%, the residual activity (PAK3 (human)) was 93.8% and the residual activity (MAPK3 (human)) was 98.8%. It also gave a residual activity (DAPK2 (human)) of 86.7%, a residual activity (CSNK1G2 (human)) of 45.2% and a residual activity (ROCK2 (human)) of 73.5%. The residual activity (RPS6KA6 KD1 KD2 (human)) was 10.5%, the residual activity (FGFR4 (human)) was 70.5% and the residual activity (TNK2 (human)) was 22.6%. The residual activity (ULK1 (human)) was 13.6%, the residual activity (CAMK2G (human)) was 8.13% and the residual activity (EPHA3 (human)) was 92.5%. The residual activity (FES (human)) was 22.1%, the residual activity (TGFBR1 (human)) was 95.5% and the residual activity (HIPK2 (human)) was 20%. It also gave a residual activity (BRAF (human)) of 109%, a residual activity (CLK4 (human)) of 16.8% and a residual activity (HIPK1 (human)) of 96.9%. For the same molecule, the residual activity (NEK6 (human)) was 97.8%, the residual activity (MAP3K5 (human)) was 98.1% and the residual activity (MELK (human)) was 16.7%. The residual activity (INSRR (human)) was 4.33%, the residual activity (TEK (human)) was 98.2% and the residual activity (CDK2 CCNA2 (human)) was 92.8%. For the same molecule, the residual activity (KDR (human)) was 13.8%, the residual activity (PRKACG (human)) was 101% and the residual activity (MARK4 (human)) was 7.19%. For the same molecule, the residual activity (INSR (human)) was 30.1% and the residual activity (EPHA6 (human)) was 45.7%.
Molecule `c1ccc(-c2n[nH]cc2-c2ccnc3ccccc23)nc1` has a residual activity (AURKC (human)) of 100%, a residual activity (LRRK2 (human)) of 93.7% and a residual activity (CDK2 CCNE1 (human)) of 91.3%. It also gave a residual activity (ACVR1 (human)) of 106%, a residual activity (MYLK2 (human)) of 98.3% and a residual activity (TLK2 (human)) of 98.6%. It also gave a residual activity (STK39 (human)) of 88.7%, a residual activity (HIPK3 (human)) of 97% and a residual activity (MKNK2 (human)) of 81.9%. It also gave a residual activity (PKN1 (human)) of 100%, a residual activity (CHEK2 (human)) of 96.6% and a residual activity (PDGFRB (human)) of 106%. For the same molecule, the residual activity (PAK3 (human)) was 99.7%, the residual activity (MAPK3 (human)) was 101% and the residual activity (DAPK2 (human)) was 102%. It also gave a residual activity (CSNK1G2 (human)) of 103%, a residual activity (ROCK2 (human)) of 100% and a residual activity (RPS6KA6 KD1 KD2 (human)) of 112%. For the same molecule, the residual activity (FGFR4 (human)) was 80.6%, the residual activity (TNK2 (human)) was 96.2% and the residual activity (ULK1 (human)) was 85.9%. It also gave a residual activity (CAMK2G (human)) of 85.9%, a residual activity (EPHA3 (human)) of 99.3% and a residual activity (FES (human)) of 111%. For the same molecule, the residual activity (TGFBR1 (human)) was 41.6%, the residual activity (HIPK2 (human)) was 91.3% and the residual activity (BRAF (human)) was 95.7%. It also gave a residual activity (CLK4 (human)) of 101%, a residual activity (HIPK1 (human)) of 99.9% and a residual activity (NEK6 (human)) of 106%. It also gave a residual activity (MAP3K5 (human)) of 105%, a residual activity (MELK (human)) of 93.3% and a residual activity (INSRR (human)) of 101%. It also gave a residual activity (TEK (human)) of 98.8%, a residual activity (CDK2 CCNA2 (human)) of 98.7% and a residual activity (KDR (human)) of 103%. It also gave a residual activity (PRKACG (human)) of 92.9%, a residual activity (MARK4 (human)) of 105% and a residual activity (INSR (human)) of 86.7%. For the same molecule, the residual activity (EPHA6 (human)) was 98.8%.
